Experimental data reported in ChEMBL document CHEMBL3585323, “Effect of intercalator substituent and nucleotide sequence on the stability of DNA- and RNA-naphthalimide complexes” (Bioorg Med Chem, 2015).
Active and inactive are the calls of the source. The rule behind the calls is not given here.

How the values were obtained:
[1] = tested on: Nucleic Acid; experiment: Induction of DNA intercalation using 5'-d(GTAATATTAC)2-3' at 250 uM by UV-vis spectrophotometric analysis; format: nucleic-acid assay
[2] = Binding affinity to 5'-r(GCGCGCGC)2-3' DNA assessed as change in melting temperature at 1:1 DNA to compound molar ratio by spectrophotometric analysis
[3] = Binding affinity to 5'-d(GCGCGCGC)2-3' DNA assessed as change in melting temperature at 1:1 DNA to compound molar ratio by spectrophotometric analysis
[4] = tested on: Nucleic Acid; experiment: Induction of DNA intercalation using 5'-r(GUCCGCGGAC)2-3' at 250 uM by UV-vis spectrophotometric analysis; format: nucleic-acid assay
[5] = tested on: Nucleic Acid; experiment: Induction of DNA intercalation using 5'-d(ATATAGTATATA)-3'/5'-(TATATACTATAT)-3' at 250 uM by UV-vis spectrophotometric analysis; format: nucleic-acid assay
[6] = tested on: Nucleic Acid; experiment: Induction of DNA intercalation using 5'-d(ATATATATATAT)2-3' at 250 uM by UV-vis spectrophotometric analysis; format: nucleic-acid assay
[7] = Binding affinity to 5'-d(ATATATATATAT)2-3' DNA assessed as change in melting temperature at 1:1 DNA to compound molar ratio by spectrophotometric analysis
[8] = Binding affinity to 5'-d(GTCCGTCGGAC)-3'/5'-(GTCCGACGGAC)-3' DNA assessed as change in melting temperature at 1:1 DNA to compound molar ratio by spectrophotometric analysis
[9] = tested on: Nucleic Acid; experiment: Induction of DNA intercalation using 5'-d(GTCCGCGGAC)2-3' at 250 uM by UV-vis spectrophotometric analysis; format: nucleic-acid assay
[10] = Binding affinity to 5'-d(ATATAGTATATA)-3'/5'-(TATATACTATAT)-3' DNA assessed as change in melting temperature at 1:1 DNA to compound molar ratio by spectrophotometric analysis
[11] = tested on: Nucleic Acid; experiment: Induction of DNA intercalation using 5'-d(GTCCGTCGGAC)-3'/5'-(GTCCGACGGAC)-3' at 250 uM by UV-vis spectrophotometric analysis; format: nucleic-acid assay
[12] = Binding affinity to 5'-d(GTAATATTAC)2-3' DNA assessed as change in melting temperature at 1:1 DNA to compound molar ratio by spectrophotometric analysis
[13] = Binding affinity to 5'-d(GTCCGCGGAC)2-3' DNA assessed as change in melting temperature at 1:1 DNA to compound molar ratio by spectrophotometric analysis
[14] = tested on: Nucleic Acid; experiment: Induction of DNA intercalation using 5'-r(GCGCGCGC)2-3' at 250 uM by UV-vis spectrophotometric analysis; format: nucleic-acid assay
[15] = tested on: Nucleic Acid; experiment: Induction of DNA intercalation using 5'-d(ATATATGATATA)-3'/5'-(TATATCATATAT)-3' at 250 uM by UV-vis spectrophotometric analysis; format: nucleic-acid assay
[16] = Binding affinity to 5'-r(GUCCGCGGAC)2-3' DNA assessed as change in melting temperature at 1:1 DNA to compound molar ratio by spectrophotometric analysis
[17] = tested on: Nucleic Acid; experiment: Induction of DNA intercalation using 5'-d(GCGCGCGC)2-3' at 250 uM by UV-vis spectrophotometric analysis; format: nucleic-acid assay
[18] = Binding affinity to 5'-d(ATATATGATATA)-3'/5'-(TATATCATATAT)-3' DNA assessed as change in melting temperature at 1:1 DNA to compound molar ratio by spectrophotometric analysis
[19] = tested on: Nucleic Acid; experiment: Induction of DNA intercalation using 5'-d(CGATCG)2-3' at 1:0.5 DNA to compound molar ratio by NMR analysis; format: nucleic-acid assay
[20] = tested on: Nucleic Acid; experiment: Induction of DNA intercalation using 5'-d(CGATCG)2-3' by NMR analysis; format: nucleic-acid assay
[21] = tested on: Nucleic Acid; experiment: Induction of DNA intercalation using 5'-d(GTCCGCGGAC)2-3' at 1:0, 1:0.5, 1:1, 1:1.5, 1:2 DNA to compound molar ratio by CD spectroscopic analysis; format: nucleic-acid assay

Row | Activity [1] | ΔTm [2] | ΔTm [3] | Activity [4] | Activity [5] | Activity [6] | ΔTm [7] | ΔTm [8] | Activity [9] | ΔTm [10] | Activity [11] | ΔTm [12] | ΔTm [13] | Activity [14] | Activity [15] | ΔTm [16] | Activity [17] | ΔTm [18] | Structure (SMILES) | other results
1 | Active | 0 °C | 0 °C | Active | Active | Active | 0 °C | 0 °C | Active | 5.8 °C | Active | 0 °C | 0 °C | Active | Active | 0 °C | Active | 1.3 °C | CN(C)CCN1C(=O)c2cccc3cc(-c4ccccc4)cc(c23)C1=O | –
2 | Active | 0 °C | 6.3 °C | Active | Active | Active | 0 °C | 0 °C | Active | 0 °C | Active | 4.5 °C | 1.1 °C | Active | Active | 0 °C | Active | 7 °C | CN(C)CCN1C(=O)c2cccc3cc(Cl)cc(c23)C1=O | –
3 | Active | 0 °C | 3.2 °C | Active | Active | Active | 0 °C | 0 °C | Active | 0 °C | Active | 0 °C | 2.7 °C | Active | Active | 0 °C | Active | 5.1 °C | Cc1cc2c3c(cccc3c1)C(=O)N(CCN(C)C)C2=O | –
4 | Active | 1.6 °C | 9.5 °C | Active | Active | Active | 0 °C | 0 °C | Active | 10.8 °C | Active | 6.3 °C | 6 °C | Active | Active | 2 °C | Active | 13.9 °C | CN(C)CCN1C(=O)c2cccc3cc(Br)cc(c23)C1=O | –
5 | Active | 0 °C | 4.6 °C | Active | Active | Active | 0 °C | 0 °C | Active | 4.7 °C | Active | 8.6 °C | 5.6 °C | Active | Active | 0 °C | Active | 8.8 °C | CC(=O)Nc1cc2c3c(cccc3c1)C(=O)N(CCN(C)C)C2=O | –
6 | Active | 0 °C | 1.6 °C | Active | Active | Active | 0 °C | 2.2 °C | Active | 5.7 °C | Active | 4.4 °C | 1.6 °C | Active | Active | 0 °C | Active | 14.7 °C | CN(C)CCN1C(=O)c2cccc3cc(O)cc(c23)C1=O | –
7 | Active | 0 °C | 2.5 °C | Active | Active | Active | 0 °C | 0 °C | Active | 1.7 °C | Active | 4.4 °C | 0 °C | Active | Active | 0 °C | Active | 8.4 °C | CN(C)CCN1C(=O)c2cccc3cc(I)cc(c23)C1=O | –
8 | Active | 0 °C | 8.7 °C | Active | Active | Active | 0 °C | 0 °C | Active | 11.6 °C | Active | 8.1 °C | 5.6 °C | Active | Active | 0 °C | Active | 19.4 °C | CN(C)CCN1C(=O)c2cccc3cccc(c23)C1=O | –
9 | Active | 0 °C | 7.9 °C | Active | Active | Active | 0 °C | 2.1 °C | Active | 0 °C | Active | 7.3 °C | 0 °C | Active | Active | 1.1 °C | Active | 16.4 °C | CC(C)Nc1cc2c3c(cccc3c1)C(=O)N(CCN(C)C)C2=O | –
10 | Active | 1.1 °C | 16.9 °C | Active | Active | Active | 0 °C | 0 °C | Active | 10.1 °C | Active | 11.6 °C | 5.1 °C | Active | Active | 1 °C | Active | 14.6 °C | CN(C)CCN1C(=O)c2cccc3cc(N)cc(c23)C1=O | Activity [19]: Active
11 | Active | 1.8 °C | 14.3 °C | Active | Active | Active | 0 °C | 5 °C | Active | 11.7 °C | Active | 12.6 °C | 13.3 °C | Active | Active | 2.2 °C | Active | 17.2 °C | CN(C)CCN1C(=O)c2cccc3cc([N+](=O)[O-])cc(c23)C1=O | Activity [20]: Active; Activity [21]: Active
